Experimental findings from patent US9730935B2, “Targeting a non-canonical notch signaling pathway for cancer treatment” (The Board of Trustees of the Leland Stanford Junior …, priority 2013, dated 2017) are described below.

For test [1], the system named is Drosophila larval brain NBs (N-induced NB expansion). Kind of test: Pharmacological treatment of N-GOF larvae: ectopic NB formation in larval brain. It is filed as in vivo. The settings on record: Mdivi-1 5 μM in food, 0.5% DMSO vehicle control, larval brains at 120 hr ALH, PntP1>N-V5. Here is the method:
Pharmacological treatment of larvae. Mdivi-1 (Enzo Life Science) dissolved in 0.5% DMSO was mixed in instant Drosophila media at 5 μM final concentration. 0.5% DMSO alone was used as vehicle control. Embryos were collected on Mdivi-1 containing food or control food for 6 hrs at 25° C. and allowed to develop further to 120 hr ALH before larval brain dissection and immunostaining.
Immunohistochemistry. For larval brain immunostaining, larvae were dissected in Schneider's medium (Invitrogen) and fixed with 4% formaldehyde in PEM buffer (100 mM PIPES at pH 6.9, 1 mM EGTA, 1 mM MgCl2) for 23 min at room temperature. Immunohistochemistry of TH and mito-GFP in Drosophila brain was performed as described (Wu et al., 2013). […] For thoracic muscle mitochondrial morphology analysis, mito-GFP was expressed in thoracic muscle using the Mhc-Gal4 driver and indirect flight muscles were dissected in PBS and examined under fluorescence confocal microscope. […]

A further test relates to HEK 293T cells. Kind of test: Western blot of mitochondrial fraction after CCCP treatment. Type of test: cell-based, human. The protocol: (§1) Co-Immunoprecipitation and Western blot analysis. Approximately 25 adult fly thoraces were collected and homogenized in HBS buffer (210 mM Mannitol, 70 mM Sucrose, 5 mM HEPES pH 7.4, 1 mM EGTA) containing protease inhibitor (Sigma). The lysate was centrifuged at 1,300 g for 10 min, and the supernatant was collected and centrifuged again at 13,000 g for 15 min. For co-IP, the cytosolic and the mitochondrial fractions were incubated with anti-GFP conjugated protein G-agarose beads (Upstate) at 4° C. for 2 hours. Beads were washed 3× with PBS for 5 min each. Proteins were eluted and analyzed by WB as described (Wu et al., 2013). For co-IP assays using human NSC and GBM cells, soluble extracts of isolated mitochondrial fractions were incubated with a mixture of anti-human PINK1 (Abcam) and protein G-agarose beads (Upstate). The primary antibodies used were: pS505-dAKT and AKT (Cell Signaling Technology), Actin (Millipore), NICD (DSHB), NDUFS3 (MitoScience), complex IV subunit I (MitoScience), Drp-1 (L. Pallanck), Calnexin (Novus), PDE1 (MitoScience), Tom20 (Santa Cruz), KDEL (Enzo Life Science), Rab5 (Abcam), Rab7 (Abcam), rat anti-hNotch1 (1:200; DSBH). Rabbit anti-dPINK1 was generated as described (Yang et al., 2006).
(§2) Mitochondria purification. Intact mitochondria from fly heads, fly thoraces and cultured cells were purified at described previously (Wu et al., 2013). […]
(In general: Immunoblotting shows a protein as a band on a membrane.)

The next test concerns Drosophila muscle tissue. Described as above. The protocol: as §1, §2

As for `COc1cc(-n2c(=S)[nH]c3ccccc3c2=O)c(Cl)cc1Cl` [Mdivi-1], in test [1], the “N-induced NB expansion / ectopic NB formation and brain tumor formation” value was “attenuated”.
In the case of `N#CC(C#N)=NNc1cccc(Cl)c1` [CCCP], the “amount of mitochondrial N” value in the test on HEK 293T cells and in the test with Drosophila muscle tissue was “not affected” throughout. Also, the “mitochondrial PINK1 level” value in the test on HEK 293T cells and in the test with Drosophila muscle tissue was “increased” in each case.
